Laboratory results reported in patent publication US10213433B2 (AbbVie Inc., priority 2010, dated 2019).

What was measured:
[1] = log D at pH 7.4 by an HPLC method; assay type: physicochemical
Description: Table 2 below presents data for log D (a parameter related to lipophilicity) at pH 7.4, as determined by an HPLC method, for representative compounds.

Bcl-2 protein = Bcl-2 protein (Homo sapiens (Human), UniProt P10415); assay: Bcl-2 binding TR-FRET (Time-Resolved Fluorescence-Resonance-Energy-Transfer) assay; conditions: inhibition constant for binding to Bcl-2 protein
Bcl-2 protein, sequence (P10415 whole entry): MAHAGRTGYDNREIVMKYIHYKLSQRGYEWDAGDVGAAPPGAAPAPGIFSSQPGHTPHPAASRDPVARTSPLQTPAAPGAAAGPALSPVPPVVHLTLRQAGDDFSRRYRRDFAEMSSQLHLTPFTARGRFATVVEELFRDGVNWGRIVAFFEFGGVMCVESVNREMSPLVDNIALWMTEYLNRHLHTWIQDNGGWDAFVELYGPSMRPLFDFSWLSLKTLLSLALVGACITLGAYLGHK
Description: The smaller the Ki value, the greater is the binding affinity.

| SMILES | chromatographic logD [1] | Ki (Bcl-2 protein) | log D [1] |
| --- | --- | --- | --- |
| CC1(C)CCC(CN2CCN(c3ccc(C(=O)NS(=O)(=O)c4ccc(OCC5COCCO5)c([N+](=O)[O-])c4)c(Oc4cnc5[nH]ccc5c4)c3)CC2)=C(c2ccc(Cl)cc2)C1 (stereo not shown) [Compound 12, 4-(4-{[2-(4-chlorophenyl)-4,4-dimethylcyclohex-1-en-1-yl]methyl}piperazin-1-yl)-N-{[4-(1,4-dioxan-2-ylmethoxy)-3-nitrophenyl]sulfonyl}-2-(1H-pyrrolo[2,3-b]pyridin-5-yloxy)benzamide] | 5.17 | < 0.01 nM |  |
| CC1(C)CCC(CN2CCN(c3ccc(C(=O)NS(=O)(=O)c4ccc(OCC5CCOCC5)c([N+](=O)[O-])c4)c(Oc4cnc5[nH]ccc5c4)c3)CC2)=C(c2ccc(Cl)cc2)C1 [Compound 24, 4-(4-{[2-(4-chlorophenyl)-4,4-dimethylcyclohex-1-en-1-yl]methyl}piperazin-1-yl)-N-{[3-nitro-4-(tetrahydro-2H-pyran-4-ylmethoxy)phenyl]sulfonyl}-2-(1H-pyrrolo[2,3-b]pyridin-5-yloxy)benzamide] | 5.72 | < 0.01 nM |  |
| CC1(C)CCC(CN2CCN(c3ccc(C(=O)NS(=O)(=O)c4ccc(OCC5(F)CCOCC5)c([N+](=O)[O-])c4)c(Oc4cnc5[nH]ccc5c4)c3)CC2)=C(c2ccc(Cl)cc2)C1 [Compound 37, 4-(4-{[2-(4-chlorophenyl)-4,4-dimethylcyclohex-1-en-1-yl]methyl}piperazin-1-yl)-N-({4-[(4-fluorotetrahydro-2H-pyran-4-yl)methoxy]-3-nitrophenyl}sulfonyl)-2-(1H-pyrrolo[2,3-b]pyridin-5-yloxy)benzamide] | 5.27 | < 0.01 nM |  |
| CC1(C)CCC(CN2CCN(c3ccc(C(=O)NS(=O)(=O)c4cnc(OCC5(F)CCN(C6COC6)CC5)c(Cl)c4)c(Oc4cnc5[nH]ccc5c4)c3)CC2)=C(c2ccc(Cl)cc2)C1 [Compound 277, N-[(5-chloro-6-{[4-fluoro-1-(oxetan-3-yl)piperidin-4-yl]methoxy}pyridin-3-yl)sulfonyl]-4-(4-{[2-(4-chlorophenyl)-4,4-dimethylcyclohex-1-en-1-yl]methyl}piperazin-1-yl)-2-(1H-pyrrolo[2,3-b]pyridin-5-yloxy)benzamide] | 5.26 | < 0.01 nM |  |
| CC1(C)CCC(CN2CCN(c3ccc(C(=O)NS(=O)(=O)c4ccc(OCC5(F)CCOCC5)c(Cl)c4)c(Oc4cnc5[nH]ccc5c4)c3)CC2)=C(c2ccc(Cl)cc2)C1 [Compound 286, N-({3-chloro-4-[(4-fluorotetrahydro-2H-pyran-4-yl)methoxy]phenyl}sulfonyl)-4-(4-{[2-(4-chlorophenyl)-4,4-dimethylcyclohex-1-en-1-yl]methyl}piperazin-1-yl)-2-(1H-pyrrolo[2,3-b]pyridin-5-yloxy)benzamide] | 5.66 | < 0.01 nM |  |
| CC1(C)CCC(CN2CCN(c3ccc(C(=O)NS(=O)(=O)c4ccc(OC[C@H]5CC[C@H](N6CCOCC6)CC5)c(Cl)c4)c(Oc4cnc5[nH]ccc5c4)c3)CC2)=C(c2ccc(Cl)cc2)C1 [Compound 303, N-[(3-chloro-4-{[trans-4-(morpholin-4-yl)cyclohexyl]methoxy}phenyl)sulfonyl]-4-(4-{[2-(4-chlorophenyl)-4,4-dimethylcyclohex-1-en-1-yl]methyl}piperazin-1-yl)-2-(1H-pyrrolo[2,3-b]pyridin-5-yloxy)benzamide] | 6.24 |  |  |
| CC1(C)CCC(CN2CCN(c3ccc(C(=O)NS(=O)(=O)c4ccc(NCCCN(C5CC5)C5COC5)c([N+](=O)[O-])c4)c(Oc4cnc5[nH]ccc5c4)c3)CC2)=C(c2ccc(Cl)cc2)C1 [Compound 311, 4-(4-{[2-(4-chlorophenyl)-4,4-dimethylcyclohex-1-en-1-yl]methyl}piperazin-1-yl)-N-{[4-({3-[cyclopropyl(oxetan-3-yl)amino]propyl}amino)-3-nitrophenyl]sulfonyl}-2-(1H-pyrrolo[2,3-b]pyridin-5-yloxy)benzamide] | 5.6 | < 0.01 nM |  |
| CN1CCC[C@H]1C(=O)N1CCC(COc2ccc(S(=O)(=O)NC(=O)c3ccc(N4CCN(CC5=C(c6ccc(Cl)cc6)CC(C)(C)CC5)CC4)cc3Oc3cnc4[nH]ccc4c3)cc2Cl)CC1 [Compound 312, N-[(3-chloro-4-{[1-(1-methyl-L-prolyl)piperidin-4-yl]methoxy}phenyl)sulfonyl]-4-(4-{[2-(4-chlorophenyl)-4,4-dimethylcyclohex-1-en-1-yl]methyl}piperazin-1-yl)-2-(1H-pyrrolo[2,3-b]pyridin-5-yloxy)benzamide] | 6.47 | < 0.01 nM |  |
| CC1(C)CCC(CN2CCN(c3ccc(C(=O)NS(=O)(=O)c4ccc(OCC5(F)CCN(C6COC6)CC5)c(Cl)c4)c(Oc4cnc5[nH]ccc5c4)c3)CC2)=C(c2ccc(Cl)cc2)C1 [Compound 322, N-[(3-chloro-4-{[4-fluoro-1-(oxetan-3-yl)piperidin-4-yl]methoxy}phenyl)sulfonyl]-4-(4-{[2-(4-chlorophenyl)-4,4-dimethylcyclohex-1-en-1-yl]methyl}piperazin-1-yl)-2-(1H-pyrrolo[2,3-b]pyridin-5-yloxy)benzamide] | 5.48 | < 0.01 nM |  |
| CC1(C)CCC(CN2CCN(c3ccc(C(=O)NS(=O)(=O)c4ccc(NC[C@H]5CC[C@@](C)(O)CC5)c([N+](=O)[O-])c4)c(Oc4cnc5[nH]ccc5c4)c3)CC2)=C(c2ccc(Cl)cc2)C1 [Compound 337, 4-(4-{[2-(4-chlorophenyl)-4,4-dimethylcyclohex-1-en-1-yl]methyl}piperazin-1-yl)-N-[(4-{[(trans-4-hydroxy-4-methylcyclohexyl)methyl]amino}-3-nitrophenyl)sulfonyl]-2-(1H-pyrrolo[2,3-b]pyridin-5-yloxy)benzamide] |  |  | 5.48 |
| CC1(C)CCC(CN2CCN(c3ccc(C(=O)NS(=O)(=O)c4ccc(NC[C@H]5CC[C@](C)(O)CC5)c([N+](=O)[O-])c4)c(Oc4cnc5[nH]ccc5c4)c3)CC2)=C(c2ccc(Cl)cc2)C1 [Compound 338, 4-(4-{[2-(4-chlorophenyl)-4,4-dimethylcyclohex-1-en-1-yl]methyl}piperazin-1-yl)-N-[(4-{[(cis-4-hydroxy-4-methylcyclohexyl)methyl]amino}-3-nitrophenyl)sulfonyl]-2-(1H-pyrrolo[2,3-b]pyridin-5-yloxy)benzamide] |  |  | 5.67 |
